# Laboratory results from patent US6812252B2, “Acylsulfonamide derivatives” (Ajinomoto Co., Inc., priority 2000, dated 2004).
row,SMILES,melting point [°C]
1,"CC(=O)CCCC(=O)NS(=O)(=O)c1ccccc1NC(=O)c1ccc(C#Cc2ccc(F)cc2)cc1 [Example 8, 4-(4-Fluoro)phenylethynyl-N-(2-(5-ketohexanoylamino)sulfonylphenyl)benzamide]",179 to 181
2,"CC(=O)CCCC(=O)NS(=O)(=O)c1ccccc1NC(=O)c1ccc(C#Cc2ccc(OC(F)(F)F)cc2)cc1 [Example 6, 4-(4-Trifluoromethoxy)phenylethynyl-N-(2-(5-ketohexanoylamino)-sulfonylphenyl)benzamide]",204 to 205
3,"CCCCCC(=O)NS(=O)(=O)c1ccccc1NC(=O)c1ccc(C#Cc2ccc(OC(F)(F)F)cc2)cc1 [Example 5, 4-(4-Trifluoromethoxy)phenylethynyl-N-(2-hexanoylaminosulfonylphenyl)benzamide]",197 to 199
4,"CCCCCC(=O)NS(=O)(=O)c1ccccc1NC(=O)c1ccc(C#Cc2cccc(F)c2)cc1 [Example 9, 4-(3-Fluoro)phenylethynyl-N-(2-hexanoylaminosulfonylphenyl)benzamide]",183 to 186
5,"CCCCCC(=O)NS(=O)(=O)c1ccccc1NC(=O)c1ccc(C#Cc2cccc(C(F)(F)F)c2)cc1 [Example 1, 4-(3-Trifluoromethyl)phenylethynyl-N-(2-hexanoylaminosulfonylphenyl)benzamide]",194 to 196
6,"CC(=O)CCCC(=O)NS(=O)(=O)c1ccccc1NC(=O)c1ccc(C#Cc2cccc(C(F)(F)F)c2)cc1 [Example 2, 4-(3-Trifluoromethyl)phenylethynyl-N-(2-(5-ketohexanoylamino)-sulfonylphenyl)benzamide]",169 to 171
7,"CCCOCC(=O)NS(=O)(=O)c1ccccc1NC(=O)c1ccc(C#Cc2cccc(C(F)(F)F)c2)cc1 [Example 3, 4-(3-Trifluoromethyl)phenylethynyl-N-(2-(2-propyloxyacetylamino)sulfonylphenyl)benzamide]",175 to 177
8,"CCCCCC(=O)NS(=O)(=O)c1ccccc1NC(=O)c1ccc(C#Cc2ccc(C(F)(F)F)cc2)cc1 [Example 4, 4-(4-Trifluoromethyl)phenylethynyl-N-(2-hexanoylaminosulfonylphenyl)benzamide]",210 to 212
9,"CCCCCC(=O)NS(=O)(=O)c1ccccc1NC(=O)c1ccc(C#Cc2ccc(F)cc2)cc1 [Example 7, 4-(4-Fluoro)phenylethynyl-N-(2-hexanoylaminosulfonylphenyl)benzamide]",183 to 186
